In US20070082339A1, “Methods and compositions for screening for HDAC inhibitory activity” (priority 2005, published 2007):

System: A549 cells
Assay: Microarray analysis of gene expression after LAQ824 treatment
Type: cell-based, human
Settings: for Fold change AMP-activated protein kinase family member 5 (ARK5) 204589_at / Fold change ANP32B acidic (leucine-rich) nuclear phosphoprotein 32 family, member B (SSP29) 201305_x_at / Fold change AVEN apoptosis, caspase activation inhibitor (Aven) 219366_at / Fold change B-cell CLL/lymphoma 3 (BCL3) 204908_s_at / Fold change BAI1-associated protein 2 (BAP2, IRSp53) 205293_x_at / Fold change BAI1-associated protein 3 (BAP3, KIAA0734) 204874_x_at / Fold change BAI1-associated protein 3 (BAP3, KIAA0734) 216356_x_at / Fold change BCL2-associated athanogene 2 (BAG-2) 209406_at / Fold change BCL2-interacting killer (apoptosis-inducing) (BP4, NBK, BIP1) 205780_at / Fold change BCL2-like 1 (BCL2L1) 206665_s_at / Fold change BH3 interacting domain death agonist (BID) 204493_at / Fold change Cyclin A2 (CCN1, CCNA) 203418_at / Fold change Cyclin-dependent kinase inhibitor 2D (p19, inhibits CDK4) (INK4D) 210240_s_at / Fold change DEC1-anti apoptosis (BHLHB2) 201169_s_at / Fold change Diphtheria toxin receptor (heparin-binding epidermal growth factor-like growth factor) (DTR) 203821_at / Fold change Early growth response 1 (TIS8, NGFI-A, KROX-24, ZIF-268) 201694_s_at / Fold change GMCL germ cell-less homolog (Drosophila) (GMCL) 218458_at / Fold change Katanin p80 (WD40-containing) subunit B 1 (KAT) 203163_at / Fold change NACHT, leucine rich repeat and PYD containing 1 (PP1044) 218380_at / Fold change Paternally expressed Gene 10 (PEG10) 212092_at / Fold change Paternally expressed Gene 10 (PEG10) 212094_at / Fold change Protein regulator of cytokinesis 1 (PRC1) 218009_s_at / Fold change SKAP55 protein 216899_s_at / Fold change Secreted frizzled-related protein 1 (FRP, SARP2) 202036_s_at / Fold change Secreted frizzled-related protein 1 (FRP, SARP2) 202037_s_at / Fold change Serine/threonine kinase 6 (AIK) 208079_s_at / Fold change Tribbles homolog 3a (TRIB3) 218145_at / Fold change Tumor necrosis factor receptor superfamily, member 6 (TNFRSF6) 215719_x_at / Fold change Tumor necrosis factor receptor superfamily, member 6 (TNFRSF6) 216252_x_at / Fold change Tumor protein p53 (Li-Fraumeni syndrome) 201746_at / Fold change Tumor protein p53 (Li-Fraumeni syndrome) 211300_s_at / Fold change member of the N-myc downregulated gene family (NDRG4) 209159_s_at: A549, 500 nM vs DMSO
Method: The human lung carcinoma cell line A549 is obtained from the American Type Culture Collection (Rockville, Md.) and cultured in F-12K (ATCC, Manassas, Va.), 10% fetal bovine serum, and 1% penicillin/streptomycin (Life Technologies, Inc.). LAQ824 (Novartis) is added directly to the cell medium at a final concentration of 500 nM. Microarray analysis is performed essentially as described previously (Welsh, 2001). Total RNA is prepared from A549 cells treated with LAQ 824 or DMSO for 0.5, 2, 6, 12 and 24 h. Labelled cDNA is prepared and hybridized to Affymetrix U133 oligonucleotide GeneChip® (Affymetrix, Santa Clara, Calif.). The arrays were scanned on an Affymetrix GeneArray scanner and analyzed with GENECHIP Microarray Analysis Suite 5.0 software (MAS5) (Affymetrix). The data (raw data including image files and scanner files (Cel. Files) as well as the MAS5 normalized data are stored in the DEMON Database. The MAS5 normalized data are exported from the database and analyzed using GeneSpring software version 6.1. The genes are filtered for a minimal expression of 100 in at least one condition (the condition being defined as the average the value for the 3 samples corresponding to a given time point and a treatement) The gene expression changes (fold change) are calculated for each time point (t) as follow: (Gene expression level LAQ824 treated—(Average of the 3 replicates) Time (t))/(Gene expression level DMSO treated—(Average of the 3 replicates) Time (t)).
Any fold change <0 indicated a down regulation or reduction of the mRNA production, any fold change >0 indicated an up regulation or increase of mRNA production. Genes are filtered according to the fold change and the statistical significance of the changes (1-way-ANOVA test p<0.05)).

SMILES: O=C(/C=C/c1ccc(CN(CCO)CCc2c[nH]c3ccccc23)cc1)NO [LAQ824, N-Hydroxy-3-[4-[[(2-hydroxyethyl)[2-(1H-indol-3-yl)-ethyl]-amino]methyl]phenyl]-2E-2-propenamide]
- Fold change AMP-activated protein kinase family member 5 (ARK5) 204589_at (12 h): −4.6 fold
- Fold change ANP32B acidic (leucine-rich) nuclear phosphoprotein 32 family, member B (SSP29) 201305_x_at (12 h): −5.1 fold
- Fold change AVEN apoptosis, caspase activation inhibitor (Aven) 219366_at (12 h): −2.6 fold
- Fold change B-cell CLL/lymphoma 3 (BCL3) 204908_s_at (12 h): −5.5 fold
- Fold change BAI1-associated protein 2 (BAP2, IRSp53) 205293_x_at (12 h): 6.8 fold
- Fold change BAI1-associated protein 3 (BAP3, KIAA0734) 204874_x_at (12 h): 15.9 fold
- Fold change BAI1-associated protein 3 (BAP3, KIAA0734) 216356_x_at (12 h): 27.9 fold
- Fold change BCL2-associated athanogene 2 (BAG-2) 209406_at (12 h): −3.3 fold
- Fold change BCL2-interacting killer (apoptosis-inducing) (BP4, NBK, BIP1) 205780_at (12 h): 12.0 fold
- Fold change BCL2-like 1 (BCL2L1) 206665_s_at (12 h): −7.6 fold
- Fold change BH3 interacting domain death agonist (BID) 204493_at (12 h): −3.6 fold
- Fold change Cyclin A2 (CCN1, CCNA) 203418_at (12 h): −2.3 fold
- Fold change Cyclin-dependent kinase inhibitor 2D (p19, inhibits CDK4) (INK4D) 210240_s_at (12 h): 4.8 fold
- Fold change DEC1-anti apoptosis (BHLHB2) 201169_s_at (12 h): −4.8 fold
- Fold change Diphtheria toxin receptor (heparin-binding epidermal growth factor-like growth factor) (DTR) 203821_at (12 h): 13.1 fold
- Fold change Early growth response 1 (TIS8, NGFI-A, KROX-24, ZIF-268) 201694_s_at (12 h): 11.2 fold
- Fold change GMCL germ cell-less homolog (Drosophila) (GMCL) 218458_at (12 h): 3.8 fold
- Fold change Katanin p80 (WD40-containing) subunit B 1 (KAT) 203163_at (12 h): 4.3 fold
- Fold change NACHT, leucine rich repeat and PYD containing 1 (PP1044) 218380_at (12 h): 11.3 fold
- Fold change Paternally expressed Gene 10 (PEG10) 212092_at (12 h): 3.8 fold
- Fold change Paternally expressed Gene 10 (PEG10) 212094_at (12 h): 3.5 fold
- Fold change Protein regulator of cytokinesis 1 (PRC1) 218009_s_at (12 h): −2.5 fold
- Fold change SKAP55 protein 216899_s_at (12 h): 1.8 fold
- Fold change Secreted frizzled-related protein 1 (FRP, SARP2) 202036_s_at (12 h): 3.9 fold
- Fold change Secreted frizzled-related protein 1 (FRP, SARP2) 202037_s_at (12 h): 3.9 fold
- Fold change Serine/threonine kinase 6 (AIK) 208079_s_at (12 h): −2.4 fold
- Fold change Tribbles homolog 3a (TRIB3) 218145_at (12 h): −4.0 fold
- Fold change Tumor necrosis factor receptor superfamily, member 6 (TNFRSF6) 215719_x_at (12 h): −6.3 fold
- Fold change Tumor necrosis factor receptor superfamily, member 6 (TNFRSF6) 216252_x_at (12 h): −4.9 fold
- Fold change Tumor protein p53 (Li-Fraumeni syndrome) 201746_at (12 h): −4.4 fold
- Fold change Tumor protein p53 (Li-Fraumeni syndrome) 211300_s_at (12 h): −3.7 fold
- Fold change member of the N-myc downregulated gene family (NDRG4) 209159_s_at (12 h): 7.3 fold
- Fold change AMP-activated protein kinase family member 5 (ARK5) 204589_at (24 h): −1.9 fold
- Fold change ANP32B acidic (leucine-rich) nuclear phosphoprotein 32 family, member B (SSP29) 201305_x_at (24 h): −7.3 fold
- Fold change AVEN apoptosis, caspase activation inhibitor (Aven) 219366_at (24 h): −8.2 fold
- Fold change B-cell CLL/lymphoma 3 (BCL3) 204908_s_at (24 h): −1.8 fold
- Fold change BAI1-associated protein 2 (BAP2, IRSp53) 205293_x_at (24 h): 3.6 fold
- Fold change BAI1-associated protein 3 (BAP3, KIAA0734) 204874_x_at (24 h): 10.9 fold
- Fold change BAI1-associated protein 3 (BAP3, KIAA0734) 216356_x_at (24 h): 19.2 fold
- Fold change BCL2-associated athanogene 2 (BAG-2) 209406_at (24 h): −4.4 fold
- Fold change BCL2-interacting killer (apoptosis-inducing) (BP4, NBK, BIP1) 205780_at (24 h): 15.5 fold
- Fold change BCL2-like 1 (BCL2L1) 206665_s_at (24 h): −2.0 fold
- Fold change BH3 interacting domain death agonist (BID) 204493_at (24 h): −4.6 fold
- Fold change Cyclin A2 (CCN1, CCNA) 203418_at (24 h): −13.3 fold
- Fold change Cyclin-dependent kinase inhibitor 2D (p19, inhibits CDK4) (INK4D) 210240_s_at (24 h): 2.0 fold
- Fold change DEC1-anti apoptosis (BHLHB2) 201169_s_at (24 h): −1.9 fold
- Fold change Diphtheria toxin receptor (heparin-binding epidermal growth factor-like growth factor) (DTR) 203821_at (24 h): 3.2 fold
- Fold change Early growth response 1 (TIS8, NGFI-A, KROX-24, ZIF-268) 201694_s_at (24 h): 4.6 fold
- Fold change GMCL germ cell-less homolog (Drosophila) (GMCL) 218458_at (24 h): 2.3 fold
- Fold change Katanin p80 (WD40-containing) subunit B 1 (KAT) 203163_at (24 h): 2.9 fold
- Fold change NACHT, leucine rich repeat and PYD containing 1 (PP1044) 218380_at (24 h): 22.7 fold
- Fold change Paternally expressed Gene 10 (PEG10) 212092_at (24 h): 7.0 fold
- Fold change Paternally expressed Gene 10 (PEG10) 212094_at (24 h): 6.5 fold
- Fold change Protein regulator of cytokinesis 1 (PRC1) 218009_s_at (24 h): −5.1 fold
- Fold change SKAP55 protein 216899_s_at (24 h): 4.0 fold
- Fold change Secreted frizzled-related protein 1 (FRP, SARP2) 202036_s_at (24 h): 4.5 fold
- Fold change Secreted frizzled-related protein 1 (FRP, SARP2) 202037_s_at (24 h): 4.4 fold
- Fold change Serine/threonine kinase 6 (AIK) 208079_s_at (24 h): −8.3 fold
- Fold change Tribbles homolog 3a (TRIB3) 218145_at (24 h): −10.1 fold
- Fold change Tumor necrosis factor receptor superfamily, member 6 (TNFRSF6) 215719_x_at (24 h): −4.8 fold
- Fold change Tumor necrosis factor receptor superfamily, member 6 (TNFRSF6) 216252_x_at (24 h): −5.6 fold
- Fold change Tumor protein p53 (Li-Fraumeni syndrome) 201746_at (24 h): −7.1 fold
- Fold change Tumor protein p53 (Li-Fraumeni syndrome) 211300_s_at (24 h): −7.3 fold
- Fold change member of the N-myc downregulated gene family (NDRG4) 209159_s_at (24 h): 4.5 fold
- NF—Y gene expression in response to LAQ824 treatment (A549 cells, DNA microarray analysis): significantly up-regulated
